Measurements as given in patent publication US20170079979A1, “THERAPY FOR SOLID TUMORS” (Children's Hospital Medical Center, priority 2014, published 2017).
Structures can show the parent of a compound that is named as a salt.

Experiments:
parental BaF3 cells = conditions: cited from earlier work; for effect of the drug combination: Imatinib combined with BCI
AU565 cells = experiment: AU565 breast cancer cell survival with NRG1 and lapatinib (FIG. 1); assay type: cell-based; conditions: for cell survival: concomitant inhibition of Dusp-1 by BCI and c-Fos by either curcumin or DFC (combination), FIG. 1 right panel
Procedure: AU565 cell line was established from the malignant pleural effusion of the mammary gland, which overexpresses the HER2. This class of tumors is treated by lapatinib. This treatment is not curative and relapse is common because cancer stem cells are not responsive to the treatment.

BaF3-BCR-ABL cells = conditions: Imatinib combined with BCI, cited from earlier work
HCC827 cells = experiment: HCC827 lung cancer cell survival with HGF and erlotinib (FIG. 2); assay type: cell-based; conditions: concomitant inhibition of Dusp-1 by BCI and c-Fos by either curcumin or DFC (combination), FIG. 2 right panel
Excerpt: HCC827 cell line was derived from the lung adenocarcinoma. This lung adenocarcinoma has an acquired mutation in the EGFR tyrosine kinase domain (E746-A750 deletion). […] Most patients develop resistance by acquiring gatekeeper mutation the kinase domain and single TKI treatment is not curative because cancer stem cells are refractory to the treatment. In addition overexpression of growth factor HGF leading to activation of MET is a more frequent way of bypassing the EGFR mediated survival in this tumor model. Besides, cancer stem cells in the presence of growth factor are not addicted to the oncogene.

RT4 cells = experiment: RT4 bladder cancer cell survival with EGF and PLX4032 (FIG. 4); assay type: cell-based; conditions: FIG. 4 right panel; for cell survival: concomitant inhibition of Dusp-1 by BCI and c-Fos by either curcumin or DFC (combination)
Procedure: To determine the effect of c-Fos and Dusp-1 inhibition with the tyrosine kinase inhibitor PLX4032, RT4 cells were assayed, as a model bladder cancer, shown in FIG. 4. This cell line was derived from bladder cancer patients, which has amplification of EGFR.

H1703 cells = experiment: H1703 lung sarcoma cell survival with EGF and sunitinib (FIG. 3); assay type: cell-based; conditions: concomitant inhibition of Dusp-1 by BCI and c-Fos by either curcumin or DFC (combination), FIG. 3 right panel
Procedure: H1703 cell line was derived from the lung sarcoma, which is driven by PDGFRA as this cell line has amplified the PDGFRA. This group of patients is treated with sunitinib.

[1] = tested on: leukemia initiating cells (LIC); conditions: cited from earlier work

Structure (SMILES): O=C1/C(=C/c2ccccc2)C(NC2CCCCC2)c2ccccc21 (centres unmarked) [BCI, (E)-2-benzylidene-3-(cyclohexylamino)-2,3-dihydro-1H-inden-1-one]
- effect of the drug combination (parental BaF3 cells): no effect
- cell survival (AU565 cells): completely suppresses the cell survival
- effect of the drug combination (BaF3-BCR-ABL cells; BCR-ABL positive cells): no effect
- sensitivity in cell proliferation assay (BaF3-BCR-ABL cells; BaF3-BCR-ABL cells with c-Fos knockdown): fully sensitive
- cell survival (HCC827 cells): completely suppresses the cell survival
- cell survival (RT4 cells): completely suppresses the cell survival
- cell survival (H1703 cells): completely suppresses the cell survival

Structure (SMILES): COc1cc(/C=C/C(=O)CC(=O)/C=C/c2ccc(O)c(OC)c2)ccc1O [curcumin]
- cell survival (AU565 cells): completely suppresses the cell survival
- cell survival (HCC827 cells): completely suppresses the cell survival
- relative potency of the BCI combination (curcumin versus DFC) (RT4 cells; combination with BCI): more potent
- cell survival (RT4 cells): completely suppresses the cell survival
- cell survival (H1703 cells): completely suppresses the cell survival

Structure (SMILES): CS(=O)(=O)CCNCc1ccc(-c2ccc3ncnc(Nc4ccc(OCc5cccc(F)c5)c(Cl)c4)c3c2)o1 [lapatinib]
- TKI response on addition of growth factor (AU565 cells; addition of NRG1, lapatinib): confer resistance

Structure (SMILES): Cc1ccc(NC(=O)c2ccc(CN3CCN(C)CC3)cc2)cc1Nc1nccc(-c2cccnc2)n1 [Imatinib, Imatinib mesylate]
- effect of the drug combination (parental BaF3 cells): no effect
- survival and apoptosis (parental BaF3 cells; inhibition of c-Fos and Dusp-1 together with Imatinib treatment): no effect
- survival of patients with leukemia [1]: improved the survival
- elimination of leukemia initiating cells (LIC) ([1]; patients with leukemia): did not eliminate

Structure (SMILES): COc1cc(/C=C/C(=O)C(=Cc2ccc(F)c(F)c2)C(=O)/C=C/c2ccc(O)c(OC)c2)ccc1O [DFC, difluorinated curcumin]
- cell survival (AU565 cells): completely suppresses the cell survival
- cell survival (RT4 cells): completely suppresses the cell survival
- cell survival (H1703 cells): completely suppresses the cell survival
